In patent US8802664B2 (Bioproject, priority 2010, dated 2014):
Structures can show the parent of a compound that is named as a salt.

Assays:
human H4 receptor = biological target: T1, human H4 receptor (Homo sapiens, UniProt Q9H3N8); assay: [3H]Histamine binding on membranes of CHO cells stably expressing human H4 receptor
T1 construct: expressed in transfected cells
In short: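 Nonspecific binding defined with 10 μM JNJ 7777120. Bound radioactivity collected on polyethyleneimine-treated GF/B filters and counted by liquid scintillation.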

SMILES	Ki or IC50 activity class (human H4 receptor) [nM]	melting point [°C]
CCCOc1cccc(C(NC2CCN(C)CC2)c2nc3ccccc3s2)c1 (centres unmarked) [Example 42, [benzothiazol-2-yl(3-propoxyphenyl)methyl](1-methylpiperidin-4-yl)amine]	< 30	90
CCCNC(=O)c1cccc(C(OC2CCN(C)CC2)c2nc3ccccc3s2)c1 (centres unmarked) [Example 220, 3-[benzothiazol-2-yl(1-methylpiperidin-4-yloxy)methyl]-N-propylbenzamide]	< 30	60
CN1CCC(OC(c2cccc(SCCCO)c2)c2nc3ccccc3[nH]2)CC1 (centres unmarked) [Example 246, 3-{3-[(1H-benzimidazol-2-yl)(1-methylpiperidin-4-yloxy)methyl]phenylsulfanyl}propan-1-ol]	< 300	97 to 99
CN1CCC(OC(c2ccccc2)c2nc3ccccc3[nH]2)CC1 (centres unmarked) [Example 30, 2-[(1-methylpiperidin-4-yloxy)phenylmethyl]-1H-benzimidazole]	< 300	110
CN1CCC(OC(c2cccc(N=[N+]=[N-])c2)c2nc3ccccc3[nH]2)CC1 (centres unmarked) [Example 231, 2-[(3-azidophenyl)(1-methylpiperidin-4-yloxy)methyl]-1H-benzimidazole]	< 300	53
Cc1ccccc1C(OC1CCN(C)CC1)c1nc2ccccc2[nH]1 (centres unmarked) [Example 193, 2-[(1-methylpiperidin-4-yloxy)-o-tolyl-methyl]-1H-benzimidazole]	< 300	190
CC(C)COc1cccc(C(NC2CCN(C)CC2)c2nc3ccccc3[nH]2)c1 (centres unmarked) [Example 67, [(1H-benzimidazol-2-yl)(3-isobutoxyphenyl)methyl](1-methylpiperidin-4-yl)amine]	< 30	99
CN1CCC(OC(c2ccccc2)c2nc3cc(Br)ccc3[nH]2)CC1 (centres unmarked) [Example 170, 5-bromo-2-[(1-methylpiperidin-4-yloxy)phenylmethyl]-1H-benzimidazole]	< 300	143
CN1CCC(NC(c2cccc(OCCCCN)c2)c2nc3ccccc3[nH]2)CC1 (centres unmarked) [Example 367, [[3-(4-aminobutoxy)phenyl](1H-benzimidazol-2-yl)methyl](1-methylpiperidin-4-yl)amine]	< 300	68
CN1CCC(OC(c2ccccc2)c2nc3cccc(O)c3[nH]2)CC1 (centres unmarked) [Example 210, 2-[(1-methylpiperidin-4-yloxy)phenylmethyl]-3H-benzimidazol-4-ol]	< 1000	170.5
CN1CCC(OC(c2cccc(CCCCCCNC(=N)NC(=O)OC(C)(C)C)c2)c2nc3ccccc3[nH]2)CC1 (centres unmarked) [Example 364, N-tert-butoxycarbonyl-N′-(6-{3-[(1H-benzimidazol-2-yl)(1-methylpiperidin-4-yloxy)methyl]phenyl}hexyl)guanidine]	< 1000	90
CN1CCC(OC(c2cccc(N3CCCC3CO)c2)c2nc3ccccc3s2)CC1 (centres unmarked) (as salt: oxalate) [Example 324, (1-{3-[benzothiazol-2-yl(1-methylpiperidin-4-yloxy)methyl]phenyl}pyrrolidin-2-yl)methanol]	–	99
CN1CCC(OC(c2cccc(C(=O)N(C)c3ccccc3)c2)c2nc3ccccc3s2)CC1 (centres unmarked) (as salt: oxalate) [Example 223, 3-[benzothiazol-2-yl(1-methylpiperidin-4-yloxy)methyl]-N-methyl-N-phenylbenzamide]	–	125
CN1CCC(NC(c2cccc(OCCF)c2)c2nc3ccccc3[nH]2)CC1 (centres unmarked) (as salt: oxalate) [Example 180, {(1H-benzimidazol-2-yl)[3-(2-fluoro-ethoxy)phenyl]methyl}(1-methylpiperidin-4-yl)amine]	–	155
CCN1CCC(OC(c2cccc(OCCN)c2)c2nc3ccccc3s2)CC1 (centres unmarked) (as salt: oxalate) [Example 290, 2-{3-[benzothiazol-2-yl(1-ethyl-piperidin-4-yloxy)methyl]phenoxy}ethylamine]	–	112
CN1CCC(OC(c2cccc(OCc3ccncc3)c2)c2nc3ccccc3s2)CC1 (centres unmarked) (as salt: oxalate) [Example 265, 2-{(1-methylpiperidin-4-yloxy)[3-(pyridin-4-ylmethoxy)phenyl]methyl}benzothiazole]	–	101
CN1CCC(OC(c2ccccc2)c2nc3ccccc3s2)C1 (centres unmarked) (as salt: oxalate) [Example 2, 2-[(1-methylpyrrolidin-3-yloxy)phenyl-methyl]benzothiazole]	–	120
CN1CCC(OC(c2cccc(OCCCCN)c2)c2nc3ccccc3[nH]2)CC1 (centres unmarked) (as salt: oxalate) [Example 331, 4-{3-[(1H-benzimidazol-2-yl)(1-methylpiperidin-4-yloxy)methyl]phenoxy}butylamine]	–	115

Continued, values first:

Ki or IC50 activity class (human H4 receptor) [nM]	melting point [°C]	SMILES
< 1000	140	CN1CCC(OC(c2nc3ccccc3[nH]2)c2cc(-c3ccccc3)ccc2O)CC1 (centres unmarked) [Example 589]
< 30	111	Cc1cccc(C(OC2CCN(C)CC2)c2nc3ccccc3[nH]2)c1O (centres unmarked) [Example 586]
< 30	136	Cc1cc(O)c(C(OC2CCN(C)CC2)c2nc3ccccc3[nH]2)c(F)c1 (centres unmarked) [Example 593]
< 300	97	CN1CCC(OC(c2cccc(C#CC3CCCNC3)c2)c2nc3ccccc3[nH]2)CC1 (centres unmarked) [Example 380, 2-[(1-methylpiperidin-4-yloxy)(3-piperidin-3-ylethynylphenyl)methyl]-1H-benzimidazole]
< 300	125	CN1CCC(OC(c2nc3ccccc3[nH]2)c2ccc3c(c2O)CCCC3)CC1 (centres unmarked) [Example 619]
< 30	82	CN1CCC(OC(c2cccc(C#CCCCN)c2)c2nc3ccccc3[nH]2)CC1 (single isomer, unassigned) [Example 566, 5-{3-[(1H-benzimidazol-2-yl)(1-methylpiperidin-4-yloxy)methyl]phenyl}pent-4-ynylamine]
< 300	125	CN1CCC(OC(c2nc3ccccc3[nH]2)c2cccc(I)c2F)CC1 (centres unmarked) [Example 334, 2-[(2-fluoro-3-iodophenyl)(1-methylpiperidin-4-yloxy)methyl]-1H-benzimidazole]
< 30	222	CN1CCC(OC(c2nc3ccccc3[nH]2)c2cc(OCCF)ccc2O)CC1 (centres unmarked) [Example 605]
< 30	151	Cc1ccc(O)c(C(OC2CCN(C)CC2)c2nc3ccccc3[nH]2)c1 (centres unmarked) [Example 578, 2-[(1H-benzimidazol-2-yl)(1-methylpiperidin-4-yloxy)methyl]-4-methylphenol]
< 300	75	CN1CCC(OC(c2nc3c(F)c(F)c(F)cc3[nH]2)c2cc(OC(F)(F)F)ccc2F)CC1 (centres unmarked) [Example 510]
< 300	80	Cc1ccc(C(OC2CCN(C)CC2)c2nc3ccccc3[nH]2)c(F)c1F (centres unmarked) [Example 551]
< 30	189	CN1CCC(OC(c2nc3ccccc3[nH]2)c2cc(O)ccc2O)CC1 (centres unmarked) [Example 618]
